Test results published in ChEMBL document CHEMBL1129258, “Synthesis and structure-activity relationships of 2-pyridones: a novel series of potent DNA gyrase inhibitors as antibacterial agents” (J Med Chem, 1996).
Values after ≈ are worked out from the molar mass of the structure shown.

Tests used:
[1] = molecular target: T1, DNA gyrase (Escherichia coli) (UniProt P0AES6+P0AES4); assay: In vivo efficacy against Escherichia coli JUHL after oral administration; type: functional, organism-based; details: Escherichia coli K-12
[2] = molecular target: T1, DNA gyrase (Escherichia coli); assay: In vivo efficacy against Escherichia coli JUHL by subcutaneous administration; type: functional, organism-based; details: Escherichia coli K-12
[3] = molecular target: T1, DNA gyrase (Escherichia coli); assay: In vitro antibacterial activity against gram-negative organism […] ATCC 13048; type: functional; details: Enterobacter aerogenes
[4] = molecular target: T1, DNA gyrase (Escherichia coli); assay: In vitro antibacterial against gram-negative organism Escherichia coli JUHL; type: functional; details: Escherichia coli K-12
[5] = molecular target: T1, DNA gyrase (Escherichia coli); assay: In vitro antibacterial activity against gram-negative organism Klebsiella pneumoniae ATCC 8045; type: functional
[6] = In vivo efficacy against Pseudomonas aeruginosa 5007 after subcutaneous administration; type: functional; details: Pseudomonas aeruginosa, sc; read-out: ED50
[7] = molecular target: T1, DNA gyrase (Escherichia coli); assay: In vitro antibacterial activity against gram-negative organism Prov. stuartii CMX-640; type: functional; details: Providencia stuartii
[8] = In vitro antibacterial activity against gram-negative organism Pseudomonas aeruginosa 5007; type: functional; details: Pseudomonas aeruginosa; read-out: MIC
[9] = In vitro antibacterial activity against gram-negative organism Pseudomonas aeruginosa DPHD-2862; type: functional; details: Pseudomonas aeruginosa; read-out: MIC
[10] = molecular target: T2, DNA gyrase (Staphylococcus aureus) (UniProt P0A0K8+P20831); assay: In vitro antibacterial activity against gram-positive organism Staphylococcus aureus 1775; type: functional
[11] = molecular target: T2, DNA gyrase (Staphylococcus aureus); assay: In vitro antibacterial activity against gram-positive organism Staphylococcus aureus ATCC 6538p; type: functional
[12] = molecular target: T2, DNA gyrase (Staphylococcus aureus); assay: In vitro antibacterial activity against gram-positive organism Staphylococcus aureus NCTC-10649M; type: functional
[13] = molecular target: T1, DNA gyrase (Escherichia coli); assay: In vitro antibacterial activity against gram-positive organism Streptococcus bovis A-5169; type: functional; details: Streptococcus equinus
Streptococcus pneumoniae [14] = assay: In vivo efficacy against Strep. administered; type: functional
[15] = molecular target: T2, DNA gyrase (Staphylococcus aureus); assay: In vivo efficacy against Staphylococcus aureus NCTC-10649M after oral administration; type: functional, organism-based
[16] = molecular target: T2, DNA gyrase (Staphylococcus aureus); assay: In vivo efficacy against Staphylococcus aureus NCTC-10649M after subcutaneous administration; type: functional, organism-based
Streptococcus pyogenes = assay: In vitro antibacterial activity against gram-positive organism Streptococcus pyogenes EES61; type: functional
[17] = molecular target: T1, DNA gyrase (Escherichia coli); assay: In vitro antibacterial activity against gram-positive organism Enterococcus faecium ATCC 8043; type: functional
Streptococcus pneumoniae [18] = assay: (§1) In vivo efficacy against Strep. administration; type: functional
[19] = molecular target: T1, DNA gyrase (Escherichia coli); details: Escherichia coli K-12
Description: Concentration which causes 50% of the gyrase (Escherichia coli H560)-mediated maximal DNA cleavage.

Pseudomonas aeruginosa = assay: In vivo efficacy against Pseudomonas aeruginosa 5007 following p.o. administration.
physchem = details: phosphate buffer, pH 7.4
Description: Aqueous solubility in pH 7.4 phosphate buffer (0.05 M) at 37 degree C

[20] = Maximum plasma concentration in rats after an oral dose of 5 mg/kg; details: rat
in vivo [21] = details: rat, po, 5 mg/kg
Description: Oral bioavailability in rat (dose 5 mg/kg)

in vivo [22] = details: rat, plasma, po, 5 mg/kg
Streptococcus pneumoniae [23] = assay: as §1; type: functional; remark: listed apart in the source
[24] = Streptococcus pyogenes, read-out: MIC
[25] = Streptococcus pneumoniae, read-out: ED50

| SMILES | ED50 [1] | ED50 [2] | MIC [3] | MIC [4] | MIC [5] | MIC [7] | MIC [8] | MIC [9] | MIC [10] | MIC [11] | MIC [12] | MIC [13] | ED50 [15] | ED50 [16] | MIC (Streptococcus pyogenes; [24]) | MIC [17] | ED50 (Pseudomonas aeruginosa) | ED50 [6] | ED50 (Streptococcus pneumoniae [18]) | CC50 [19] | further results |
| --- | --- | --- | --- | --- | --- | --- | --- | --- | --- | --- | --- | --- | --- | --- | --- | --- | --- | --- | --- | --- | --- |
| Cc1c(N2CC[C@@H]([C@H](C)N)C2)c(F)cn2c(=O)c(C(=O)O)cc(C3CC3)c12 | 3.3 mg/kg | 0.5 mg/kg | 0.01 µg/mL (≈ 0.0268 µM) | < 0.001 µg/mL | 0.005 µg/mL (≈ 0.0134 µM) | 0.2 µg/mL (≈ 0.536 µM) | 0.05 µg/mL (≈ 0.134 µM) | 1.56 µg/mL (≈ 4.18 µM) | 0.05 µg/mL (≈ 0.134 µM) | < 0.001 µg/mL | < 0.001 µg/mL | < 0.001 µg/mL | 7.2 mg/kg | < 0.2 mg/kg | < 0.001 µg/mL | < 0.001 µg/mL | 13 mg/kg | 1 mg/kg | < 3.1 mg/kg | 0.3 µg/mL (≈ 0.803 µM) | ED50 (Streptococcus pneumoniae [14]): < 1.3 mg/kg |
| CC(NC(=O)C(C)NC1CCN(c2nc3c(-c4ccc(F)cc4F)cc(C(=O)O)c(=O)n3cc2F)C1)C(=O)O (centres undefined) | 14.3 mg/kg | < 2.5 mg/kg | – | – | – | – | – | – | – | – | – | – | 3 mg/kg | 2.8 mg/kg | – | – | 68.8 mg/kg | 14.8 mg/kg | 49.7 mg/kg | – | ED50 (Streptococcus pneumoniae [18]; [25]): 140 mg/kg; solubility (physchem): 1000 µg/mL (≈ 1830 µM) |
| Cc1c(N2C[C@@H]3CCCN[C@@H]3C2)c(F)cn2c(=O)c(C(=O)O)cc(C3CC3)c12 (stereo in doubt; (S,S)45n) | – | – | – | – | – | – | 0.2 µg/mL (≈ 0.519 µM) | 3.1 µg/mL (≈ 8.04 µM) | – | – | – | – | – | – | – | – | – | > 8 mg/kg | 3.6 mg/kg | – | ED50 (Streptococcus pneumoniae [14]; [25]): 2.2 mg/kg; MIC (Streptococcus pyogenes): 0.05 µg/mL (≈ 0.13 µM) |
| Cc1c(N2CC[C@@H](N)C2)c(F)cn2c(=O)c(C(=O)O)cc(C3CC3)c12 | 1 mg/kg | 0.3 mg/kg | 0.01 µg/mL (≈ 0.029 µM) | 0.005 µg/mL (≈ 0.0145 µM) | 0.005 µg/mL (≈ 0.0145 µM) | 0.2 µg/mL (≈ 0.579 µM) | 0.05 µg/mL (≈ 0.145 µM) | 1.56 µg/mL (≈ 4.52 µM) | 1.56 µg/mL (≈ 4.52 µM) | 0.01 µg/mL (≈ 0.029 µM) | 0.02 µg/mL (≈ 0.0579 µM) | 0.1 µg/mL (≈ 0.29 µM) | < 3.1 mg/kg | 0.9 mg/kg | 0.05 µg/mL (≈ 0.145 µM) | 0.05 µg/mL (≈ 0.145 µM) | 6.2 mg/kg | 2.4 mg/kg | – | 0.15 µg/mL (≈ 0.434 µM) | Cmax [20]: 80 ng/mL; bioavailability (in vivo [21]): 10%; half-life (in vivo [22]): 1.1 h |
| Cc1c(N2CCC(N)C2)c(F)cn2c(=O)c(C(=O)O)cc(C3CC3)c12 (centres undefined) | < 0.3 mg/kg | 0.4 mg/kg | 0.005 µg/mL (≈ 0.0145 µM) | 0.002 µg/mL (≈ 0.00579 µM) | 0.002 µg/mL (≈ 0.00579 µM) | 0.2 µg/mL (≈ 0.579 µM) | 0.05 µg/mL (≈ 0.145 µM) | 0.78 µg/mL (≈ 2.26 µM) | 1.56 µg/mL (≈ 4.52 µM) | 0.01 µg/mL (≈ 0.029 µM) | 0.01 µg/mL (≈ 0.029 µM) | 0.02 µg/mL (≈ 0.0579 µM) | 4.1 mg/kg | 1 mg/kg | 0.02 µg/mL (≈ 0.0579 µM) | 0.02 µg/mL (≈ 0.0579 µM) | 4.6 mg/kg | 0.5 mg/kg | – | 0.05 µg/mL (≈ 0.145 µM) | ED50 (Streptococcus pneumoniae [23]): 6.2 mg/kg; ED50 (Streptococcus pneumoniae [18]; [25]): 12.5 mg/kg |
| Cc1c(N2C[C@H]3CCCN[C@H]3C2)c(F)cn2c(=O)c(C(=O)O)cc(C3CC3)c12 (single isomer, unassigned) | – | > 1 mg/kg | 0.05 µg/mL (≈ 0.13 µM) | 0.05 µg/mL (≈ 0.13 µM) | 0.005 µg/mL (≈ 0.013 µM) | 1.56 µg/mL (≈ 4.05 µM) | 0.78 µg/mL (≈ 2.02 µM) | 12.5 µg/mL (≈ 32.4 µM) | 0.78 µg/mL (≈ 2.02 µM) | 0.05 µg/mL (≈ 0.13 µM) | 0.05 µg/mL (≈ 0.13 µM) | 0.05 µg/mL (≈ 0.13 µM) | 29.3 mg/kg | 6.1 mg/kg | 0.05 µg/mL (≈ 0.13 µM) | 0.1 µg/mL (≈ 0.259 µM) | > 50 mg/kg | > 8 mg/kg | – | – | ED50 (Streptococcus pneumoniae [14]; [25]): > 8 mg/kg; ED50 (Streptococcus pneumoniae [18]; [25]): 32.2 mg/kg |

Further lines, with some results ahead:

| ED50 [1] | ED50 [2] | MIC [3] | MIC [4] | MIC [5] | MIC [7] | MIC [8] | MIC [9] | MIC [10] | MIC [11] | MIC [12] | MIC [13] | ED50 [15] | ED50 [16] | MIC (Streptococcus pyogenes; [24]) | MIC [17] | ED50 (Pseudomonas aeruginosa) | SMILES | ED50 [6] | ED50 (Streptococcus pneumoniae [18]) | CC50 [19] | further results |
| --- | --- | --- | --- | --- | --- | --- | --- | --- | --- | --- | --- | --- | --- | --- | --- | --- | --- | --- | --- | --- | --- |
| 2.1 mg/kg | 1.3 mg/kg | 0.1 µg/mL (≈ 0.268 µM) | 0.02 µg/mL (≈ 0.0536 µM) | 0.02 µg/mL (≈ 0.0536 µM) | 3.1 µg/mL (≈ 8.3 µM) | 1.56 µg/mL (≈ 4.18 µM) | 12.5 µg/mL (≈ 33.5 µM) | 6.2 µg/mL (≈ 16.6 µM) | 0.1 µg/mL (≈ 0.268 µM) | 0.1 µg/mL (≈ 0.268 µM) | 0.78 µg/mL (≈ 2.09 µM) | 4.8 mg/kg | 4.4 mg/kg | 0.39 µg/mL (≈ 1.04 µM) | 0.39 µg/mL (≈ 1.04 µM) | 12.7 mg/kg | Cc1c(N2C[C@@H](C)N[C@@H](C)C2)c(F)cn2c(=O)c(C(=O)O)cc(C3CC3)c12 | > 8 mg/kg | 49.4 mg/kg | 1.8 µg/mL (≈ 4.82 µM) | ED50 (Streptococcus pneumoniae [14]): > 8 mg/kg |
| – | – | 0.1 µg/mL (≈ 0.289 µM) | 0.02 µg/mL (≈ 0.0577 µM) | 0.01 µg/mL (≈ 0.0289 µM) | 0.39 µg/mL (≈ 1.13 µM) | 0.39 µg/mL (≈ 1.13 µM) | 3.1 µg/mL (≈ 8.95 µM) | 0.39 µg/mL (≈ 1.13 µM) | 0.005 µg/mL (≈ 0.0144 µM) | 0.005 µg/mL (≈ 0.0144 µM) | 0.1 µg/mL (≈ 0.289 µM) | 5.3 mg/kg | 1.5 mg/kg | – | 0.05 µg/mL (≈ 0.144 µM) | – | Cc1c(N2CC[C@H](O)C2)c(F)cn2c(=O)c(C(=O)O)cc(C3CC3)c12 | – | > 10 mg/kg | – | ED50 (Streptococcus pneumoniae [23]): > 2 mg/kg |
